Article PMC10485095, “Structure and enzymatic characterization of CelD endoglucanase from the anaerobic fungus Piromyces finnis” (Applied Microbiology and Biotechnology, 2023)

Target: T1, CelD GH5 catalytic domain (construct 91–452) (Piromyces finnis, UniProt A0A1Y1V643)
T1 construct: gene BCR36DRAFT_398243; third GH5 catalytic domain of 136 kDa three-GH5, double-dockerin CelD; E. coli BL21-Gold(DE3), pMCSG68; N-terminal His/Strep tag cut by TEV for crystallisation; two molecules per asymmetric unit
Assay: X-ray crystallography, co-crystal, […] Å
Format: binding
Details: inactive acid/base mutant; 10 mM cellotriose added; bound at -3, -2, -1 subsites of active site; 0.1 M sodium acetate, 24% PEG 6000, 16 °C

T1 sequence (A0A1Y1V643 entry or part of it E900A): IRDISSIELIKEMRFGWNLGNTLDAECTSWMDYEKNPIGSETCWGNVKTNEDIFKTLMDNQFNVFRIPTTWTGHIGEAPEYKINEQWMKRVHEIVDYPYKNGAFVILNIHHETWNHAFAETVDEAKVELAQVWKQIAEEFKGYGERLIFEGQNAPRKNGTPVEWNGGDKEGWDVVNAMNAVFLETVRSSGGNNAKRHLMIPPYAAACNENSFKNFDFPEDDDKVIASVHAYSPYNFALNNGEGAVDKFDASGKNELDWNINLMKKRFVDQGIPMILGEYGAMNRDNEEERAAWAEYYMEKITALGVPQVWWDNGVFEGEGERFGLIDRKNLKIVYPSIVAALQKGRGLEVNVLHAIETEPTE

OC[C@H]1O[C@@H](O[C@H]2[C@H](O)[C@@H](O)[C@H](O[C@H]3[C@H](O)[C@@H](O)C(O)O[C@@H]3CO)O[C@@H]2CO)[C@H](O)[C@@H](O)[C@@H]1O (stereo partly shown) [cellotriose]
X-ray crystallography, co-crystal, 1.8 Å: The complex between the E154A mutant protein and cellotriose was formed by adding the ligand
